Measured values taken from patent US11161830B2, “4-pyridone compound or salt thereof, and pharmaceutical composition and formulation including same” (priority 2017, dated 2021).
“And” between values parts separate entries of the source, which are not always exact repeats. Identical values can stand only once.

Assays:
[1] = system: HBV genotype C; assay: Test Example 3-2: in vivo efficacy study in PXB mouse (chimeric mouse with human hepatocytes), first and second study; design: species or system hepatitis B virus; conditions: second study, orally 3 mg/kg twice a day for 14 days from day 35, individual mice, 3 mg/kg
Description: An in vivo efficacy study with a PXB mouse (a chimeric mouse with human hepatocytes) was carried out in PhenixBio Co., Ltd. 19-Week-or-more-old male mice having body weights of 10.5 g or more after the elapse of 13 weeks or more from the infection with HBV genotype C were allocated into the respective groups and used. The studies were carried out twice, and a 21-day administration withdrawal period was provided between the first study and the second study.
The first administration day in the first study was taken as day 0, and the compound of Example 6-5 was orally administered at 1 mg/kg, 3 mg/kg, 10 mg/kg, and 30 mg/kg twice a day, or 0.5% methylcellulose (vehicle) was orally administered once a day for 14 days. Before administration on day 0, day 3, Day 7, and day 10, and on day 14, the blood was collected from the orbital venous plexus under anesthesia with isoflurane.
The first administration day in the second study was taken as day 35, and the compounds of Examples 19-2 and 20-2 were each orally administered at 3 mg/kg twice a day, or 0.5% methylcellulose (vehicle) was orally administered once a day for 14 days. Before administration on day 35, day 38, day 42, and day 45, the blood was collected from the orbital venous plexus under anesthesia with isoflurane. On day 49, the blood was collected from the heart under anesthesia with isoflurane.
(§1) The serum was separated from the collected blood and purified with a QIAamp (registered trademark) DNA Blood Mini Kit (manufactured by QIAGEN). The amount of HBV-DNA in the obtained solution was absolutely quantified by a real-time PCR method. In addition, the amount of HBsAg in the serum was absolutely quantified by chemiluminescent enzyme immunoassay using Lumipulse (registered trademark) HBsAg-HQ (manufactured by Fujirebio Inc.).

[2] = system: HBV genotype C; assay: Test Example 3-3: in vivo efficacy study in PXB mouse (chimeric mouse with human hepatocytes); design: species or system hepatitis B virus; conditions: individual mice
Description: An in vivo efficacy study with a PXB mouse (a chimeric mouse with human hepatocytes) was carried out in PhenixBio Co., Ltd. Male mice having body weights of 15 g or more after the elapse of 8 weeks from the infection with HBV genotype C were allocated into the respective groups and used.
The compounds of Example 20-2 was orally administered at 2 mg/kg, 6 mg/kg, and 20 mg/kg once a day, and at 1 mg/kg, 3 mg/kg, and 10 mg/kg twice a day, or 0.5% methylcellulose (vehicle) was orally administered once a day for 14 days. A first administration day was taken as day 0, and before administration on day 0, day 3, Day 7, and day 10, and on day 14, the blood was collected from the orbital venous plexus under anesthesia with isoflurane.
as §1, with “Lumnipulse” for “Lumipulse”

[3] = orally 1 mg/kg twice a day, Day 0 (before administration), 1 mg/kg
[4] = orally 1 mg/kg twice a day, Day 3, 1 mg/kg
[5] = orally 1 mg/kg twice a day, Day 7, 1 mg/kg
[6] = orally 1 mg/kg twice a day, Day 10, 1 mg/kg
[7] = orally 1 mg/kg twice a day, Day 14, 1 mg/kg
[8] = orally 2 mg/kg once a day, Day 0 (before administration), 2 mg/kg
[9] = orally 2 mg/kg once a day, Day 3, 2 mg/kg
[10] = orally 2 mg/kg once a day, Day 7, 2 mg/kg
[11] = orally 2 mg/kg once a day, Day 10, 2 mg/kg
[12] = orally 2 mg/kg once a day, Day 14, 2 mg/kg
[13] = orally 3 mg/kg twice a day, Day 0 (before administration), 3 mg/kg
[14] = orally 3 mg/kg twice a day, Day 3, 3 mg/kg
[15] = orally 3 mg/kg twice a day, Day 7, 3 mg/kg
[16] = orally 3 mg/kg twice a day, Day 10, 3 mg/kg
[17] = orally 3 mg/kg twice a day, Day 14, 3 mg/kg
[18] = orally 6 mg/kg once a day, Day 0 (before administration), 6 mg/kg
[19] = orally 6 mg/kg once a day, Day 3, 6 mg/kg
[20] = orally 6 mg/kg once a day, Day 7, 6 mg/kg
[21] = orally 6 mg/kg once a day, Day 10, 6 mg/kg
[22] = orally 6 mg/kg once a day, Day 14, 6 mg/kg
[23] = orally 10 mg/kg twice a day, Day 0 (before administration), 10 mg/kg
[24] = orally 10 mg/kg twice a day, Day 3, 10 mg/kg
[25] = orally 10 mg/kg twice a day, Day 7, 10 mg/kg
[26] = orally 10 mg/kg twice a day, Day 10, 10 mg/kg
[27] = orally 10 mg/kg twice a day, Day 14, 10 mg/kg
[28] = orally 20 mg/kg once a day, Day 0 (before administration), 20 mg/kg
[29] = orally 20 mg/kg once a day, Day 3, 20 mg/kg
[30] = orally 20 mg/kg once a day, Day 7, 20 mg/kg
[31] = orally 20 mg/kg once a day, Day 10, 20 mg/kg
[32] = orally 20 mg/kg once a day, Day 14, 20 mg/kg

COCCO[C@@H]1CCN(c2ccc(-c3cc(=O)c(C(=O)O)cn3-c3ccc4nc(N5CCC[C@@H]5COC)sc4c3)cc2)C1 [Example 19-2, 6-(4-((R)-3-(2-methoxyethoxy)pyrrolidin-1-yl)phenyl)-1-(2-((R)-2-(methoxymethyl)pyrrolidin-1-yl)benzo[d]thiazol-6-yl)-4-oxo-1,4-dihydropyridine-3-carboxylic acid]
HBV-DNA in blood ([1]; Day 35 (before administration)): 6.1E+08 copies/mL and 3.7E+08 copies/mL | HBsAg in serum ([1]; Day 35 (before administration)): 1,872 IU/mL and 2,473 IU/mL | HBV-DNA in blood ([1]; Day 38): 2.1E+08 copies/mL and 6.2E+08 copies/mL | HBsAg in serum ([1]; Day 38): 968 IU/mL and 2,558 IU/mL | HBV-DNA in blood ([1]; Day 42): 3.3E+08 copies/mL and 2.5E+08 copies/mL | HBsAg in serum ([1]; Day 42): 992 IU/mL and 1,238 IU/mL | HBV-DNA in blood ([1]; Day 45): 4.2E+08 copies/mL and 3.0E+08 copies/mL | HBsAg in serum ([1]; Day 45): 1,548 IU/mL and 1,644 IU/mL | HBV-DNA in blood ([1]; Day 49): 1.4E+08 copies/mL and 1.8E+08 copies/mL | HBsAg in serum ([1]; Day 49): 1,509 IU/mL and 1,348 IU/mL

COC1CN(c2nc3ccc(-n4cc(C(=O)O)c(=O)cc4-c4ccc(N5CC[C@@H](OC)C5)c(F)c4)cc3s2)C1 [Example 20-2]
HBV-DNA in blood ([1]; Day 35 (before administration)): 8.2E+08 copies/mL and 8.3E+08 copies/mL | HBsAg in serum ([1]; Day 35 (before administration)): 2,556 IU/mL and 3,408 IU/mL | HBV-DNA in blood ([1]; Day 38): 4.6E+08 copies/mL and 4.0E+08 copies/mL | HBsAg in serum ([1]; Day 38): 948 IU/mL and 1,061 IU/mL | HBV-DNA in blood ([1]; Day 42): 2.6E+08 copies/mL and 5.0E+08 copies/mL | HBsAg in serum ([1]; Day 42): 832 IU/mL and 1,478 IU/mL | HBV-DNA in blood ([1]; Day 45): 3.5E+08 copies/mL and 3.1E+08 copies/mL | HBsAg in serum ([1]; Day 45): 859 IU/mL and 1,185 IU/mL | HBV-DNA in blood ([1]; Day 49): 2.3E+08 copies/mL and 2.7E+08 copies/mL | HBsAg in serum ([1]; Day 49): 1,444 IU/mL and 924 IU/mL | HBV-DNA in blood [2, 3]: 2.8E+08 copies/mL and 1.4E+08 copies/mL | HBsAg in serum [2, 3]: 3,352 IU/mL and 2,640 IU/mL and 4,436 IU/mL | HBV-DNA in blood [2, 4]: 1.7E+08 copies/mL and 1.2E+08 copies/mL and 3.7E+08 copies/mL | HBsAg in serum [2, 4]: 3,056 IU/mL and 2,193 IU/mL and 4,655 IU/mL | HBV-DNA in blood [2, 5]: 1.4E+08 copies/mL | HBsAg in serum [2, 5]: 3,033 IU/mL and 1,691 IU/mL and 3,774 IU/mL | HBV-DNA in blood [2, 6]: 1.4E+08 copies/mL and 3.7E+08 copies/mL | HBsAg in serum [2, 6]: 2,356 IU/mL and 1,694 IU/mL and 3,775 IU/mL | HBV-DNA in blood [2, 7]: 2.5E+08 copies/mL and 1.3E+08 copies/mL and 6.9E+08 copies/mL | HBsAg in serum [2, 7]: 2,833 IU/mL and 2,077 IU/mL and 4,276 IU/mL | HBV-DNA in blood [2, 8]: 4.5E+08 copies/mL and 4.7E+08 copies/mL and 4.4E+08 copies/mL | HBsAg in serum [2, 8]: 2,534 IU/mL and 2,701 IU/mL and 3,776 IU/mL | HBV-DNA in blood [2, 9]: 3.3E+08 copies/mL | HBsAg in serum [2, 9]: 2,393 IU/mL and 1,918 IU/mL and 3,502 IU/mL | HBV-DNA in blood [2, 10]: 1.7E+08 copies/mL and 5.3E+08 copies/mL | HBsAg in serum [2, 10]: 1,612 IU/mL and 2,211 IU/mL and 3,236 IU/mL | HBV-DNA in blood [2, 11]: 4.2E+08 copies/mL and 4.3E+08 copies/mL and 3.9E+08 copies/mL | HBsAg in serum [2, 11]: 1,946 IU/mL and 1,609 IU/mL and 3,623 IU/mL | HBV-DNA in blood [2, 12]: 4.3E+08 copies/mL | HBsAg in serum [2, 12]: 1,526 IU/mL and 2,321 IU/mL and 3,366 IU/mL | HBV-DNA in blood [2, 13]: 3.4E+08 copies/mL and 3.8E+08 copies/mL | HBsAg in serum [2, 13]: 2,582 IU/mL and 2,395 IU/mL and 3,879 IU/mL | HBV-DNA in blood [2, 14]: 2.2E+08 copies/mL and 1.8E+08 copies/mL and 2.1E+08 copies/mL | HBsAg in serum [2, 14]: 1,034 IU/mL and 1,048 IU/mL and 1,801 IU/mL | HBV-DNA in blood [2, 15]: 2.8E+08 copies/mL and 1.2E+08 copies/mL and 1.8E+08 copies/mL | HBsAg in serum [2, 15]: 1,275 IU/mL and 785 IU/mL and 1,286 IU/mL | HBV-DNA in blood [2, 16]: 4.3E+08 copies/mL | HBsAg in serum [2, 16]: 1,017 IU/mL and 900 IU/mL and 1,379 IU/mL | HBV-DNA in blood [2, 17]: 3.7E+08 copies/mL and 3.4E+08 copies/mL and 3.6E+08 copies/mL | HBsAg in serum [2, 17]: 1,051 IU/mL and 910 IU/mL and 1,375 IU/mL | HBV-DNA in blood [2, 18]: 6.7E+08 copies/mL and 1.6E+08 copies/mL and 4.3E+08 copies/mL | HBsAg in serum [2, 18]: 3,883 IU/mL and 1,905 IU/mL and 3,703 IU/mL | HBV-DNA in blood [2, 19]: 3.8E+08 copies/mL and 2.0E+08 copies/mL and 1.7E+08 copies/mL | HBsAg in serum [2, 19]: 3,331 IU/mL and 1,529 IU/mL and 2,004 IU/mL | HBV-DNA in blood [2, 20]: 1.5E+08 copies/mL and 3.3E+08 copies/mL | HBsAg in serum [2, 20]: 3,453 IU/mL and 1,321 IU/mL and 2,025 IU/mL | HBV-DNA in blood [2, 21]: 3.8E+08 copies/mL and 2.2E+08 copies/mL and 1.5E+08 copies/mL | HBsAg in serum [2, 21]: 2,920 IU/mL and 1,342 IU/mL and 1,100 IU/mL | HBV-DNA in blood [2, 22]: 2.2E+08 copies/mL and 1.5E+08 copies/mL and 7.7E+08 copies/mL | HBsAg in serum [2, 22]: 2,569 IU/mL and 1,312 IU/mL and 1,879 IU/mL | HBV-DNA in blood [2, 23]: 4.2E+08 copies/mL and 3.8E+08 copies/mL | HBsAg in serum [2, 23]: 3,678 IU/mL and 2,545 IU/mL and 3,727 IU/mL | HBV-DNA in blood [2, 24]: 1.7E+08 copies/mL and 2.5E+08 copies/mL | HBsAg in serum [2, 24]: 994 IU/mL and 735 IU/mL and 901 IU/mL | HBV-DNA in blood [2, 25]: 2.1E+08 copies/mL and 1.6E+08 copies/mL and 1.1E+08 copies/mL | HBsAg in serum [2, 25]: 707 IU/mL and 547 IU/mL and 708 IU/mL | HBV-DNA in blood [2, 26]: 1.5E+08 copies/mL and 1.7E+08 copies/mL | HBsAg in serum [2, 26]: 861 IU/mL and 593 IU/mL and 676 IU/mL | HBV-DNA in blood [2, 27]: 2.0E+08 copies/mL | HBsAg in serum [2, 27]: 931 IU/mL and 620 IU/mL and 738 IU/mL | HBV-DNA in blood [2, 28]: 2.8E+08 copies/mL | HBsAg in serum [2, 28]: 3,225 IU/mL and 3,886 IU/mL and 2,106 IU/mL | HBV-DNA in blood [2, 29]: 2.1E+08 copies/mL and 2.0E+08 copies/mL and 9.7E+07 copies/mL | HBsAg in serum [2, 29]: 1,239 IU/mL and 1,019 IU/mL and 517 IU/mL | HBV-DNA in blood [2, 30]: 1.6E+08 copies/mL and 1.4E+08 copies/mL and 8.2E+07 copies/mL | HBsAg in serum [2, 30]: 1,003 IU/mL and 877 IU/mL and 385 IU/mL | HBV-DNA in blood [2, 31]: 3.3E+08 copies/mL and 2.5E+08 copies/mL and 1.5E+08 copies/mL | HBsAg in serum [2, 31]: 1,200 IU/mL and 1,104 IU/mL and 493 IU/mL | HBV-DNA in blood [2, 32]: 2.1E+08 copies/mL and 2.9E+08 copies/mL and 1.6E+08 copies/mL | HBsAg in serum [2, 32]: 1,037 IU/mL and 1,159 IU/mL and 497 IU/mL
